ChEMBL document CHEMBL6153076, “Discovery of novel JQ1 derivatives as dual ferroptosis and apoptosis inducers for the treatment of triple-negative breast cancer” (Eur J Med Chem, 2025)
pIC50: −log10 of the molar value. Activity calls are given as the source filed them. No cut-off for these calls is given here.

Tests used:
[1] = test system: MDA-MB-231; assay: Induction of apoptosis in human MDA-MB-231 cells assessed as late apoptotic cells at 0.2 uM incubated for 48 hrs by Annexin V/PI staining based flow cytometry analysis (reference value: 0.14%); assay type: functional
[2] = Cytotoxicity against human MCF-10A cells assessed as inhibition of cell proliferation incubated for 72 hrs by MTT assay; assay type: toxicity, cell-based
[3] = test system: MDA-MB-231; assay: Induction of apoptosis in human MDA-MB-231 cells assessed as early apoptotic cells at 0.2 uM incubated for 48 hrs by Annexin V/PI staining based flow cytometry analysis (reference value: 0.80%); assay type: functional
[4] = test system: MDA-MB-231; assay: Antitumor activity against human MDA-MB-231 cells xenografted in nude mouse assessed as suppression of tumor growth at 50 mg/kg, ip administered daily for 21 days; assay type: functional, organism-based; details: time 21.0 day
[5] = test system: MDA-MB-231; assay: Induction of cell cycle arrest in human MDA-MB-231 cells assessed as accumulation of cells at G2/M phase at 1 uM incubated for 48 hrs by propidium iodide staining flow cytometric analysis (reference value: 8.69%); assay type: functional
[6] = test system: MDA-MB-231; assay: Induction of cell cycle arrest in human MDA-MB-231 cells assessed as accumulation of cells at S phase at 1 uM incubated for 48 hrs by propidium iodide staining flow cytometric analysis (reference value: 26.75%); assay type: functional
[7] = test system: MDA-MB-231; assay: Induction of ferroptosis in human MDA-MB-231 cells assessed as increase in intracellular LPO accumulation incubated for 48 hrs by confocal laser scanning microscopic analysis; assay type: functional, cell-based; details: dose 0.2-5 µM
[8] = test system: BT-549; assay: cells; details: Homo sapiens, BT-549, 72 h
Description: Antiproliferative activity against human BT-549 cells assessed as inhibition of cell proliferation incubated for 72 hrs by MTT assay

[9] = test system: MDA-MB-231; assay: Induction of ferroptosis in human MDA-MB-231 cells assessed as increase in intracellular MDA accumulation incubated for 48 hrs; assay type: functional, cell-based; details: dose 0.2-5 µM
[10] = test system: MDA-MB-231; assay: Induction of apoptosis in human MDA-MB-231 cells assessed as late apoptotic cells at 1 uM incubated for 48 hrs by Annexin V/PI staining based flow cytometry analysis (reference value: 0.14%); assay type: functional
[11] = test system: MDA-MB-231; assay: Induction of apoptosis in human MDA-MB-231 cells assessed as early apoptotic cells at 1 uM incubated for 48 hrs by Annexin V/PI staining based flow cytometry analysis (reference value: 0.80%); assay type: functional
[12] = test system: MDA-MB-231; assay: Downregulation of FTH1 expression in human MDA-MB-231 cells; assay type: functional, cell-based; details: dose 0.2-5 µM
[13] = test system: MDA-MB-231; assay: Induction of apoptosis in human MDA-MB-231 cells assessed as […] expression at 0.2 to 5 uM; assay type: functional, cell-based; details: dose 0.2-5 µM
[14] = test system: MDA-MB-231; assay: Induction of cell cycle arrest in human MDA-MB-231 cells assessed as accumulation of cells at S phase at 5 uM incubated for 48 hrs by propidium iodide staining flow cytometric analysis (reference value: 26.75%); assay type: functional
[15] = test system: MDA-MB-231; assay: Induction of apoptosis in human MDA-MB-231 cells assessed as upregulation of C-myc expression at 0.2 to 5 uM; assay type: functional, cell-based; details: dose 0.2-5 µM
[16] = test system: MDA-MB-231; assay: Induction of apoptosis in human MDA-MB-231 cells assessed as viable cells at 5 uM incubated for 48 hrs by Annexin V/PI staining based flow cytometry analysis (reference value: 97.85%); assay type: functional; details: read-out: Activity
[17] = test system: MDA-MB-231; assay: Induction of apoptosis in human MDA-MB-231 cells assessed as upregulation of Bax expression at 0.2 to 5 uM; assay type: functional, cell-based; details: dose 0.2-5 µM
[18] = test system: MDA-MB-231; assay: Induction of apoptosis in human MDA-MB-231 cells assessed as necrotic cells at 1 uM incubated for 48 hrs by Annexin V/PI staining based flow cytometry analysis (reference value: 0.03%); assay type: functional
[19] = test system: MDA-MB-231; assay: Induction of cell cycle arrest in human MDA-MB-231 cells assessed as accumulation of cells at G2/M phase at 0.2 uM incubated for 48 hrs by propidium iodide staining flow cytometric analysis (reference value: 8.69%); assay type: functional
[20] = test system: MDA-MB-231; assay: Induction of ferroptosis in human MDA-MB-231 cells assessed as decrease in GSH level incubated for 48 hrs; assay type: functional, cell-based; details: dose 0.2-5 µM
[21] = test system: MDA-MB-231; assay: Downregulation of BRD4 expression in human MDA-MB-231 cells by Western blot analysis; assay type: functional, cell-based; details: dose 0.2-5 µM
[22] = test system: MDA-MB-231; assay: Anti-metastatic activity in human MDA-MB-231 cells assessed as inhibition of cell migration incubated for 24 hrs by inverted microscopic analysis; assay type: functional, cell-based; details: dose 0.2-5 µM
[23] = test system: MDA-MB-231; assay: Induction of apoptosis in human MDA-MB-231 cells assessed as necrotic cells at 5 uM incubated for 48 hrs by Annexin V/PI staining based flow cytometry analysis (reference value: 0.03%); assay type: functional
[24] = test system: MDA-MB-231; assay: Downregulation of SLC3A2 expression in human MDA-MB-231 cells; assay type: functional, cell-based; details: dose 0.2-5 µM
[25] = Toxicity in nude mouse xenografted with human MDA-MB-231 cells at 50 mg/kg, ip administered daily for 21 days; assay type: organism-based; details: in vivo, 504 h, time 21 day
[26] = test system: MDA-MB-231; assay: Induction of apoptosis in human MDA-MB-231 cells assessed as necrotic cells at 0.2 uM incubated for 48 hrs by Annexin V/PI staining based flow cytometry analysis (reference value: 0.03%); assay type: functional
[27] = test system: MDA-MB-231; assay: Downregulation of NRF2 expression in human MDA-MB-231 cells at 0.2 to 5 uM; assay type: functional, cell-based; details: dose 0.2-5 µM
[28] = test system: MDA-MB-231; assay: Induction of apoptosis in human MDA-MB-231 cells assessed as late apoptotic cells at 5 uM incubated for 48 hrs by Annexin V/PI staining based flow cytometry analysis (reference value: 0.14%); assay type: functional
[29] = test system: MDA-MB-231; assay: Downregulation of SLC7A11 expression in human MDA-MB-231 cells; assay type: functional, cell-based; details: dose 0.2-5 µM
[30] = test system: MDA-MB-231; assay: Induction of cell cycle arrest in human MDA-MB-231 cells assessed as accumulation of cells at G2/M phase at 5 uM incubated for 48 hrs by propidium iodide staining flow cytometric analysis (reference value: 8.69%); assay type: functional
[31] = test system: MDA-MB-231; assay: Induction of ferroptosis in human MDA-MB-231 cells assessed as increase in intracellular Fe2+ level at 0.2 to 5 uM incubated for 48 hrs by FerroOrange staining based flow cytometry analysis; assay type: functional, cell-based; details: dose 0.2-5 µM
[32] = test system: MDA-MB-231; assay: Downregulation of GPX4 expression in human MDA-MB-231 cells by Western blot analysis; assay type: functional, cell-based; details: dose 0.2-5 µM
[33] = test system: MDA-MB-231; assay: Induction of cell cycle arrest in human MDA-MB-231 cells assessed as accumulation of cells at G0/G1 phase at 1 uM incubated for 48 hrs by propidium iodide staining flow cytometric analysis (reference value: 64.56 %); assay type: functional
[34] = test system: MDA-MB-231; assay: Downregulation of HO-1 expression in human MDA-MB-231 cells at 0.2 to 5 uM; assay type: functional, cell-based; details: dose 0.2-5 µM
[35] = test system: MDA-MB-231; assay: Antitumor activity against human MDA-MB-231 cells xenografted in nude mouse assessed as tumor growth inhibition at 50 mg/kg, ip administered daily for 21 days; assay type: functional; details: MDA-MB-231, 504 h, time 21 day, read-out: TGI
[36] = test system: MDA-MB-231; assay: Downregulation of FSP1 expression in human MDA-MB-231 cells; assay type: functional, cell-based; details: dose 0.2-5 µM
[37] = test system: MDA-MB-231; assay: Induction of apoptosis in human MDA-MB-231 cells assessed as early apoptotic cells at 5 uM incubated for 48 hrs by Annexin V/PI staining based flow cytometry analysis (reference value: 0.80%); assay type: functional
[38] = test system: MDA-MB-231; assay: cells; details: Homo sapiens, MDA-MB-231, 72 h
Description: Antiproliferative activity against human MDA-MB-231 cells assessed as inhibition of cell proliferation incubated for 72 hrs by MTT assay

[39] = test system: MDA-MB-231; assay: Induction of cell cycle arrest in human MDA-MB-231 cells assessed as accumulation of cells at G0/G1 phase at 5 uM incubated for 48 hrs by propidium iodide staining flow cytometric analysis (reference value: 64.56 %); assay type: functional
[40] = test system: MDA-MB-231; assay: Induction of apoptosis in human MDA-MB-231 cells assessed as viable cells at 1 uM incubated for 48 hrs by Annexin V/PI staining based flow cytometry analysis (reference value: 97.85%); assay type: functional; details: read-out: Activity
[41] = molecular target: Bromodomain-containing protein 4 (Homo sapiens, UniProt O60885); assay: Inhibition of BRD4 (unknown origin) incubated for 120 mins by TR-FRET assay
[42] = test system: MDA-MB-231; assay: Induction of cell cycle arrest in human MDA-MB-231 cells assessed as accumulation of cells at G0/G1 phase at 0.2 uM incubated for 48 hrs by propidium iodide staining flow cytometric analysis (reference value: 64.56 %); assay type: functional
[43] = test system: MDA-MB-231; assay: Induction of apoptosis in human MDA-MB-231 cells assessed as viable cells at 0.2 uM incubated for 48 hrs by Annexin V/PI staining based flow cytometry analysis (reference value: 97.85%); assay type: functional; details: read-out: Activity
[44] = test system: MDA-MB-231; assay: Induction of cell cycle arrest in human MDA-MB-231 cells assessed as accumulation of cells at S phase at 0.2 uM incubated for 48 hrs by propidium iodide staining flow cytometric analysis (reference value: 26.75%); assay type: functional

Work on `Cc1sc2c(c1C)C(c1ccc(Cl)cc1)=N[C@@H](CC(=O)NC1CCN(C(=O)CCl)CC1)c1nnc(C)n1-2` yielded an Activity [1] of 5.14%, an IC50 at 72 h [2] of 2560 nM and an Activity [3] of 6.1%. The Activity [4] was “Active”, the Activity [5] was 15.47% and the Activity [6] was 30.62%. For the same molecule, the Activity [7] was “Dose-dependent-effect”, the pIC50 [8] was 6.28 and the Activity [9] was “Dose-dependent-effect”. For the same molecule, the Activity [10] was 9.51%, the Activity [11] was 16.51% and the Activity [12] was “Dose-dependent-effect”. The Activity [13] was “Active”, the Activity [14] was 32.17% and the Activity [15] was “Active”. For the same molecule, the viability at 5 µM [16] was 59.7%, the Activity [17] was “Active” and the Activity [18] was 1.44%. The Activity [19] was 10.25%, the Activity [20] was “Dose-dependent-effect” and the Activity [21] was “Dose-dependent-effect”. For the same molecule, the Activity [22] was “Dose-dependent-effect”, the Activity [23] was 0.7% and the Activity [24] was “Dose-dependent-effect”. For the same molecule, the Activity [25] was “Non-toxic”, the Activity [26] was 0.68% and the Activity [27] was “Active”. The Activity [28] was 21.27%, the Activity [29] was “Dose-dependent-effect” and the Activity [30] was 25.39%. For the same molecule, the Activity [31] was “Active”, the Activity [32] was “Dose-dependent-effect” and the Activity [33] was 53.71%. For the same molecule, the Activity [34] was “Active”, the inhibition in vivo at 50 mg/kg [35] was 51.4% and the Activity [36] was “Dose-dependent-effect”. It also gave an Activity [37] of 18.2%, a pIC50 [38] of 6.31 and an Activity [39] of 42.44%. The viability at 1 µM [40] was 72.5%, the pIC50 [41] was 6.48 and the Activity [42] was 60.87%. The viability at 0.2 µM [43] was 88% and the Activity [44] was 28.88%.
